Reference: patent EP3315495A1, “N,N' -[…], N,N' -DIAR[…] N,N' -DIARY[…] FOR USE IN TREATMENT AND PREVENTION OF INFLAMMATORY DISEASE” (Universität Innsbruck, priority 2016, dated 2018)
Entries after “also recorded” stand apart in the source; their conditions may differ. Marks after values point to notes of the source that are not given here.

Key:
[1] = target: T1, FLAP (Homo sapiens, UniProt P20292); details: active = inhibition of product formation in cells without 5-LOX activity in the cell-free assay
T1 sequence (P20292 1-161): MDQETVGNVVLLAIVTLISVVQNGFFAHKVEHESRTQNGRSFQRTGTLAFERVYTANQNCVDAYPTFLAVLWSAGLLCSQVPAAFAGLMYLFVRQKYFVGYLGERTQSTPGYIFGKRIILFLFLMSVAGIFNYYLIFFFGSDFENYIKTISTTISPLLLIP
Protocol: The enzyme was preincubated for 15 min with the potential inhibitor on ice and subsequently exposed to 2 mM CaCl2 and 20 µM AA for 10 min at 37°C.
Effect on 5-LOX product formation and sEH activity is determined as described above. In case of observed effect on 5-LOX product formation in the cellular assay, 5-LOX activity was investigated with isolated 5-LOX.

[2] = target: T2, sEH (Homo sapiens, UniProt P34913); details: result in words
T2 sequence (P34913 1-555): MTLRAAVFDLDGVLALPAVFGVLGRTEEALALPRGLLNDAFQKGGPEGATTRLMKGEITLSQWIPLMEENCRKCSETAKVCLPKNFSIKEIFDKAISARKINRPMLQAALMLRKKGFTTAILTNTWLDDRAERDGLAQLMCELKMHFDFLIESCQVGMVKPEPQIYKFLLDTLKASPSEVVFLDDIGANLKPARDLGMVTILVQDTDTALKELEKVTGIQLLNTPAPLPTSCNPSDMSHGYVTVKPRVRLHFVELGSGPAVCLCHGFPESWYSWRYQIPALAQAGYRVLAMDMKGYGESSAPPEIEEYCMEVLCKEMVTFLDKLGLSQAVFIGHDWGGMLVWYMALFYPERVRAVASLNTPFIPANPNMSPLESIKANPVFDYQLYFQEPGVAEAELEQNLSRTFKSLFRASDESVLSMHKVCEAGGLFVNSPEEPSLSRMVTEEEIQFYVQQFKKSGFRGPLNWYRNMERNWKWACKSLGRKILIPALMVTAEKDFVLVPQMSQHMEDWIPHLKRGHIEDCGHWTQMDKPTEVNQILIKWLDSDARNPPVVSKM
Protocol: (§1) In brief, sEH was expressed in transfected Sf9-cells. Isolation of sEH from the cell pellet was conducted with a benzylthiosepharose matrix. […] The reaction was stopped with ZnSO4 (0.2 M) after 60 min incubation. […] Inhibitors were tested for self fluorescence. Positive controls were AUDA (12-(3-adamantan-1-yl-ureido)dodecanacid) and DCU (N,N'-dicyclohexylurea) at 10 µM.

[3] = tested on: 5-LOX product formation in PMNL; test: 5-LOX product formation in PMNL stimulated with A23187 (cell-based); parameters: species or system human; details: for Effect on 5-LOX product formation in PMNL: result in words; for inhibition at 1 µM: read-out: Effect on 5-LOX product formation in PMNL, % inhibition
Protocol: Briefly, first a cell-based assay allows to determine the inhibition of the 5-LOX product biosynthesis. The cell suspension contained human neutrophils (PMNL) or monocytes, wherein the cells were isolated from buffy coats obtained from healthy donors pooled by gender. An aliquot cell suspension was incubated with the candidate compound for 15 min at 37 °C. The cells are treated with calcium ionophore A23187 to stimulate 5-LOX product formation for further 10 min (37 °C), optionally in presence of various concentrations of AA. The reaction was stopped with 1 mL methanol on ice.
In both assays, product quantification was conducted with RP-HPLC and UV detection after solid phase extraction and addition of 200 ng prostaglandin B1 as internal standard.

[4] = target: T2, sEH; test: biochemical; details: for inhibition at 0.1 µM / inhibition at 1 µM: read-out: Effect on sEH activity, % inhibition
Protocol: as §1

[5] = tested on: leukotriene mediated peritonitis; test: Zymosan-induced peritonitis model in mice; type: in vivo, CD1 male mice; details: intraperitoneal, 30 min prior to zymosan
Protocol: Compound I-12 was evaluated in vivo in a peritonitis model in mice. The experimental protocols were approved by the Animal Care Committee of the University of Naples Federico II, in compliance with Italian regulations on protection of animals used for experimental and other scientific purpose (Ministerial Decree 116/92) as well as with the European Economic Community regulations (Official Journal of E.C. L 358/1 12/18/1986); protocol number: 2014/0018760 27th February 2014. CD1 male mice with an age of six to eight weeks were investigated. The leukotriene mediated peritonitis is induced by injection of 1 mg zymosan in 50 µl saline solution. 30 min prior to induction, the candidate compound was applied as intraperitoneal injection in different concentrations as well as DMSO as negative control and positive controls (MK886, zileuton). Results are given in Table 3, wherein […] and LTB 4 levels are measured as well as vascular permeability (VP) and the cell recruitment in the peritoneal cavity (Cell Rec). Table 3: Results from an in vivo study with a mouse peritonitis model
In Table 3, values in percent indicate the percent inhibition in respect to the vehicle control. Statistical significance is determined via ANOVA Bonferroni, wherein * indicates p<0.05; ** indicates p<0.01; *** indicates p<0.001 vs. vehicle. N indicates the number of investigated mice.

| Compound | Effect on FLAP activity [1] | Effect on sEH activity [2] | Effect on 5-LOX product formation in PMNL [3] | inhibition at 0.1 µM [4] [%] | other results |
| --- | --- | --- | --- | --- | --- |
| CCn1c(COc2ccc3ccccc3c2)nc2ccccc21 [Compound I12-1, reference compound] | inactive | inactive | inactive |  |  |
| Cc1cc(OCc2nc3ccccc3s2)ccc1NC(=O)NC1CCCCC1 [Compound I12-2, N-[4-(2-benzothiazolylmethoxy)-2-methylphenyl]-N'-cyclohexyl-urea, reference compound] | did not show an effect; also recorded: inactive |  | did not show an effect; also recorded: inactive | 75 |  |
| Cc1cccc(NC(=O)Nc2ccc(OCc3nc4ccccc4s3)cc2C)c1 [Compound I12-3] | active |  |  | 55 | inhibition at 1 µM ([3]; Homo sapiens, PMNL): 100% |
| Cc1cc(OCc2nc3ccccc3s2)ccc1NC(=O)Nc1cccc2ccccc12 [Compound I12-4] | active | inactive |  |  | inhibition at 1 µM ([3]; Homo sapiens, PMNL): 70% |
| Cc1cc(OCc2nc3ccccc3s2)ccc1NC(=O)c1cccc(F)c1 [Compound I12-5, reference compound] | inactive | inactive | inactive |  |  |
| Cc1cc(OCc2nc3ccccc3s2)ccc1NC(=O)COc1ccc(Cl)cc1Cl [Compound I12-6, reference compound] | inactive | inactive | inactive |  |  |
| CCNC(=O)Nc1ccc(OCc2nc3ccccc3s2)cc1C [Compound I12-7, reference compound] | inactive | inactive | inactive |  |  |
| COc1cc(/C=N/NC(=O)c2ccc(CSc3nc4ccccc4s3)o2)cc(Br)c1O [Compound I12-8, reference compound] | inactive |  | inactive | 30 |  |
| CSc1ccc(N/N=C/c2nc3ccccc3s2)cc1 [Compound I12-9, reference compound] | inactive | inactive | inactive |  |  |
| CC(C)c1ccc(OCc2nc3ccccc3[nH]2)cc1 [Compound I12-10, reference compound] | inactive | inactive | inactive |  |  |
| Cc1cccc(OCC(=O)Nc2ccc(OCc3nc4ccccc4s3)cc2C)c1 [Compound I12-11, reference compound] | active | did not show sEH inhibition; also recorded: inactive |  |  | inhibition at 1 µM ([3]; Homo sapiens, PMNL): 97% |
| Cc1cc(OCc2nc3ccccc3s2)ccc1NC(=O)c1ccc(Cl)cc1 [Compound I12-12, reference compound] | inactive | inactive | inactive |  |  |
| Cc1cccc(OCc2nc3ccccc3s2)c1C [Compound I12-13, reference compound] | inactive | inactive | inactive |  |  |
| COc1cccc(NC(=O)Nc2ccc(CCc3nc4ccccc4[nH]3)cc2)c1 [Compound L1] | inactive |  | inactive | 30 |  |
| O=C(Nc1ccc(CCc2nc3ccccc3[nH]2)cc1)Nc1cccc(Cl)c1 [Compound L2] | inactive |  | inactive | 50 |  |
| O=C(Nc1ccccc1)Nc1ccc(CCc2nc3ccccc3[nH]2)cc1 [Compound L3] | inactive |  | inactive | 30 |  |
| O=C(Nc1ccc(Cl)cc1)Nc1ccc(CCc2nc3ccccc3[nH]2)cc1 [Compound L4] | inactive |  | inactive | 78 |  |
| COc1ccc(NC(=O)Nc2ccc(CCc3nc4ccccc4[nH]3)cc2)cc1 [Compound L5] | inactive |  | inactive | 50 |  |
| O=C(Nc1ccc(F)cc1)Nc1ccc(CCc2nc3ccccc3[nH]2)cc1 [Compound L6] | inactive |  | inactive | 55 |  |
| Cn1c(CCc2ccc(NC(=O)Nc3cccc(Cl)c3)cc2)nc2ccccc21 [Compound L8] | inactive |  | inactive | 65 |  |
| Cc1cc(OCc2nc3ccccc3[nH]2)ccc1NC(=O)Nc1ccc(Cl)c(Cl)c1 [EZ14, N-[4-(1H-Benzimidazol-2-ylmethoxy)-2-methylphenyl]-N'-(3,4-dichlorophenyl)-urea] |  |  |  |  | IC50 [4]: 55 nM; IC50 ([3]; Homo sapiens, PMNL, read-out: Effect on 5-LOX product formation in PMNL, IC50): 770 nM |
| CC(C)c1ccc2c(c1)c(SC(C)(C)C)c(CC(C)(C)C(=O)O)n2Cc1ccc(Cl)cc1 [MK886, reference compound] |  |  |  |  | Cell Rec (cell recruitment in the peritoneal cavity) ([5]; 1 mg): 4.54±0.326 10^6/ml; Cell Rec, percent inhibition in respect to the vehicle control ([5]; 1 mg): 41%***; LTB4 ([5]; 1 mg): 258 ± 48 pg/mL; LTB4, percent inhibition in respect to the vehicle control ([5]; 1 mg): 63%**; LTC4 ([5]; 1 mg): 24.2 ± 2.98 ng/mL; LTC4, percent inhibition in respect to the vehicle control ([5]; 1 mg): 73%***; VP (vascular permeability) ([5]; 3 mg): 0.303±0.018 abs 610 nm; VP, percent inhibition in respect to the vehicle control ([5]; 3 mg): 51% |
| Cc1cc(OCc2nc3ccccc3o2)ccc1NC(=O)Nc1ccc(Cl)c(Cl)c1 [SE04, N-[4-(2-Benzoxazolylmethoxy)-2-methylphenyl]-N'-(3,4-dichlorophenyl)-urea] |  |  |  |  | inhibition at 1 µM [4]: ~87%; inhibition at 1 µM ([3]; Homo sapiens, PMNL): ~85% |
| O=C(Nc1ccc(OCc2nc3ccccc3o2)cc1)Nc1ccc(Cl)c(Cl)c1 [TS04] | inactive |  | inactive |  | inhibition at 1 µM [4]: ~96% |
| CC(c1cc2ccccc2s1)N(O)C(N)=O (stereo not drawn) [ZIL, zileuton, reference compound] |  |  |  |  | LTC4 ([5]; 10 mg): 56.5 ± 4.58 ng/mL; LTC4, percent inhibition in respect to the vehicle control ([5]; 10 mg): 36%*; VP (vascular permeability) ([5]; 10 mg): 0.639±0.104 abs 610 nm |
